# Source: patent publication EP3025717A1, “SYNERGISTIC PHARMACEUTICAL COMPOSITION OF TWO ANALGESICS HAVING A DISTINCT PHARMACOKINETIC PROFILE” (FARMACÉUTICOS RAYERE, S.A., priority 2013, dated 2014)
# Columns and labels:
# acute inflammatory pain = assay: Formalin model of acute inflammatory pain in mice, isobolographic analysis; type: in vivo, ICR male mice; conditions: Mus musculus, ip; individual drug, intraperitoneal, 20 minutes before formalin, phase 2 (15 to 45 minutes); read-out: DE30 (dose causing 30% anti-nociceptive effect)
# Method: The duration of the experiment was always as short as possible, considering that the number of animals used was the minimum necessary. […] Transparent cylinders of 20 cm diameter X 40 cm high were used, with mirrors. At the start of the experiment, the mice were placed in cylinders for a period of 60 minutes to settle. After this time, the mice were removed for the administration of 20 μL formalin (3% formaldehyde solution). Immediately after formalin administration, the mouse was returned to the cylinder for observing the characteristic behaviour, which consists in counting the number of licks of the injected paw during 5-minute periods to a total time of 45 minutes. […] Groups of animals were used with an average n ≥ 6. Physiological saline solution (0.9) was administered intraperitoneally as a control of each experimental set. […] The percentage of anti-nociception was plotted according to the dose of both analgesics individually or in combination. The data of the dose-response curve were analysed by a variance analysis (ANOVA), followed by a Tukey test. […] The doses used for this assay correspond to those reported as effective in humans, considering that an average human weighs 60 kg.
# [1] = cited from earlier work
# COX-1 and COX-2 = conditions: in vitro; cited from earlier work
Compound,ED30 (acute inflammatory pain) [mg/kg],percentage of native drug in the faeces ([1]; faeces) [%],administered dose excreted in the urine ([1]; mostly as metabolites) [%],absolute bio-availability ([1]; oral administration) [%],Tmax ([1]; plasma) [h],increase of the maximum plasma concentrations by food ([1]; presence of food) [%],plasma concentrations observed in synovial fluid ([1]; synovial fluid),percentage of native drug in the urine ([1]; urine) [%],ratio Cl50COX-2/Cl50COX-1 (inhibits more the constitutive COX-1 than the COX-2) (COX-1 and COX-2) [times]
"Cc1cnc(NC(=O)C2=C(O)c3ccccc3S(=O)(=O)N2C)s1 [MXC, 4-hydroxy-2-methyl-N-(5-methyl-2-thiazolyl)-2H-1,2-benzothiazine-3-carboxamide-1,1-dioxide]",0.12 ± 0.004,1.6,43,90,5 to 6,22,40-50%,0.2,
"CC(=O)Oc1ccccc1C(=O)O [aspirin, acetylsalicylic acid]",,,,,,,,,166
